Format: in vivo, rat
Conditions: male and female rats, D+1 to D+7 after oral tube-feeding
Experimental: The configurational stereoisomers of flocoumafen are separated by high-pressure liquid chromatography using a LUX® Cellulose-4 chiral column (00F-4490-B0, Phenomenex, Le Pecq, France) as stationary phase and a mixture formed from acetonitrile (A) and water comprising 0.1% by volume of formic acid (B), with an AB volume ratio of 92/8, as mobile phase with a flow rate of the liquid mobile phase in the chromatography column of 0.25 mL/minute. 1 μL of extract comprising flocoumafen at a concentration of 1 μg/mL of acetonitrile is injected. Detection is performed by tandem mass spectrometry (MS/MS) in negative electrospray ionization (ESI) mode. The temperature of the nebulizer gas is 350° C. and its flow rate is 8 L/minute. The pressure of the nebulizer gas is brought to 2700 hPa. In particular, the MRM (“Multiple Reaction Monitoring”) transitions m/z 541.1→382.1 and m/z 541.1→161, corresponding to the flocoumafen signal, are detected.
About 0.525 g(±0.025 g) of rat liver is weighed out accurately and placed in a 50 mL polypropylene tube. 10 mL of acetone are added and the suspension is homogenized using an UltraTurrax® homogenizer/disperser for a time of about 30 seconds. The homogenizer/disperser shaft is rinsed with hot water and then twice with 20 mL of acetone in a polypropylene tube. […]

O=c1oc2ccccc2c(O)c1C1CC(c2ccc(OCc3ccc(C(F)(F)F)cc3)cc2)Cc2ccccc21 (single isomer, unassigned) [Enantiomer E3, flocoumafen]
Persistence in the liver (in words, relative to enantiomer E4 and flocoumafen): lower than the persistence of enantiomer E4 of said diastereoisomer D1,4 and lower than the persistence of flocoumafen

— patent US20180362491A1, “STEREOISOMER OF FLOCOUMAFEN, COMPOSITION AND RODENTICIDE BAIT COMPRISING SAME, AND METHOD FOR CONTROLLING TARGET RODENT PESTS” (priority 2015, published 2018)
